Reference: US9914910B2, “Methods of preserving and protecting pancreatic beta cells and treating or preventing diabetes by inhibiting NOX-1” (Eastern Virginia Medical School, priority 2013, dated 2018)

Columns and labels:
[1] = tested on: INS-1 cells; test: Caspase-3 assay (pro-caspase-3 cleavage) after PIC; format: cell-based, rat; settings: INS-1, PIC 4 hours, up to
Experimental: (§1) A. Caspase-3 Assay: Pro-caspase-3 cleavage was measured using a caspase-3 Assay kit (BD Pharmigen, Franklin Lakes, N.J.) per the manufacturer's instructions; fluorescence being measured (SpectraMax, Molecular Devices, Sunnyvale, Calif.) at excitation 380 nm and emission 440 nm (INS-1) or 460 nm (βTC-3, mouse).

[2] = target: T1, NOX-1 (Homo sapiens, UniProt Q9Y5S8); settings: cited from earlier work
T1 sequence (Q9Y5S8 1-564): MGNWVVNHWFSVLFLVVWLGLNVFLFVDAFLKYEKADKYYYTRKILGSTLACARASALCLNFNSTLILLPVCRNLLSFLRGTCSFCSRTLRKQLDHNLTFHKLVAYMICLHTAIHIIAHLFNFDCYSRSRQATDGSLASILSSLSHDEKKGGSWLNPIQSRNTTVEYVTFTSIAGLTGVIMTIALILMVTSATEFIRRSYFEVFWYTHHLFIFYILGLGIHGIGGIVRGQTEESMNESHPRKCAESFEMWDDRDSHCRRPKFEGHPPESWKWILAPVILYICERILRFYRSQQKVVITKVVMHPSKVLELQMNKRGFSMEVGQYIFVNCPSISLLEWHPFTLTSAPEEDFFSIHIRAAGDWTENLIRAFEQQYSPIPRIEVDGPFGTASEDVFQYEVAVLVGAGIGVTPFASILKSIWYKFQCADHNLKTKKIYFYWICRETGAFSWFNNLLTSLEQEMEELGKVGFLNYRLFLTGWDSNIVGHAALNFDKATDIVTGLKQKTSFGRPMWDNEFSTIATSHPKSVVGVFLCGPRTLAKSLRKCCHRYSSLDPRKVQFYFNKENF
T1 sequence (P13498 1-195 partner): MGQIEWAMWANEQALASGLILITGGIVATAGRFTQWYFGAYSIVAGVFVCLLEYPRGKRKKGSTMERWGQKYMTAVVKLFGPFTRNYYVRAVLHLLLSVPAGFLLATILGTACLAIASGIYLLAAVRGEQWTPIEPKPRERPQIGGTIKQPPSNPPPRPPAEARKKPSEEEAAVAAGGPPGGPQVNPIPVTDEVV

[3] = tested on: primary mouse islets; test: Caspase-3 assay (pro-caspase-3 cleavage) after PIC; format: cell-based; settings: 4 hours, up to
Experimental: (§2) Human donor islets were obtained from integrated islet distribution project (http://iidp.coh.org) and cultured in CMRL media (Mediatech, Manassas, Va.). Mouse islets were freshly isolated from 8-week old male C57BL/6J mice (Jackson Laboratory, Bar Harbor, Me.) by common bile duct cannulation and collagenase digestion. Islets were hand picked prior to use.
as §1

[4] = tested on: NOX-1 gene expression in βTC-3 cells; test: PIC-induced NOX-1 gene expression (RT-PCR); format: cell-based, mouse; settings: βTC-3, PIC 24 hours
Experimental: Total RNA was isolated using the RNeasy Mini Kit (Qiagen, Valencia, Calif.) and cDNA prepared using MMLV reverse transcriptase (Life Technologies) and random hexamers (Life Technologies). Jump Start Taq polymerase (Life Technologies) was used in PCR reactions. […] RT-PCR reactions were performed in triplicate (CFX96 Bio-Rad, Hercules, Calif.). Taqman primers (Life Technologies) were also used. Data was normalized to the housekeeping gene GAPDH and analyzed using the 2-ΔΔCT method.

[5] = tested on: βTC-3 cells; test: ROS measurement (DCF-DA) after PIC; format: cell-based, mouse; settings: βTC-3, PIC 1 hour
Experimental: βTC-3 cells were cultured in DMEM media (Life Technologies, Grand Island, N.Y.) supplemented with 18% fetal calf serum, 1% penicillin/streptomycin, 4 mM L-glutamine, 5.5 mM glucose, and 1 mM sodium pyruvate at 370 C with 5% CO2.
(§3) Cells treated for 1 hour were then washed with PBS prior to addition of 10 μM 6-Carboxy-2′,7′-Dichlorodihydrofluorescein Diacetate, Di(Acetoxymethyl ester) (DCF-DA, Life Technologies) for 30 min at 370 C. Post PBS wash cells were incubated at 370 C for 1 hour. Prior to fluorescence measurement (SpectraMax Molecular Devices, Sunnyvale, Calif.) at excitation 480 nm: emission 530 nm.
(§4) Elevation of cellular ROS in beta-cell lines INS-1 (rat beta-cell line) and βTC-3 (mouse beta-cell line) was evaluated by conversion of fluorescent substrate DCF-DA. Following one hour stimulation with a pro-inflammatory cytokine cocktail (PIC; IL-1β, TNF-α, and IFN-γ) detectable ROS elevated from control levels of 0.05±0.02 and 0.09±0.03 (INS-1 and βTC-3 respectively) to 0.25±0.04 and 0.23±0.03 (INS-1 and βTC-3 respectively). This increase was significant p<0.05 and p<0.01 (INS-1 and βTC-3 respectively).

[6] = tested on: βTC-3 cells; test: Caspase-3 assay (pro-caspase-3 cleavage) after PIC; format: cell-based, mouse; settings: βTC-3, PIC 4 hours, up to
Experimental: as §1

[7] = tested on: INS-1 cells; test: ROS measurement (DCF-DA) after pro-inflammatory cytokine cocktail (PIC); format: cell-based, rat
Experimental: INS-1 cells were cultured in RPMI-1640 media (Life Technologies, Grand Island, N.Y.) supplemented with 10% fetal calf serum, 1% penicillin/streptomycin, 10 mM Hepes, 2 mM Lglutamine, 1 mM sodium pyruvate, and 0.05 mM 2-mercaptoethanol at 370 C with 5% CO2.
as §3, §4

[8] = tested on: primary mouse islets; test: Apoptosis by YO-PRO-1 fluorescence microscopy after PIC; format: cell-based
Experimental: as §2
B. Fluorescence microscopy: Stimulated cells or islets were washed in cold PBS, and incubated for 30 mins at 40 C with cold PBS containing 1 μg/mL propidium iodide and 0.1 μM YO-PRO-1 (Life Technologies). For cell lines, five randomly fields per well were analyzed. For islets, all islets (>1000 um2 in size) were analyzed. Densitometric fluorescent value for YO-PRO-1 (green channel) was normalized to background and expressed proportional to cell occupied area (phase contrast). Images captured across three channels with Axiophot (Zeiss, Jena, Germany) with Axiovision (Zeiss) image analysis.
FIG. 1: Treatment of primary mouse islets with inflammatory cytokines (TNFα, IL-1β, IFNγ) induces islet/beta cell death (apoptosis) which can be measured in a fluorescent-based assay (green signal) using YO-PRO-1. […] The degree of cell death can be quantified by measuring the green signal. The graph is a quantitative analysis of multiple (≧4 visual fields in replicate wells). The detected relative fluorescent units (RFU) are plotted. […]

CC(=O)c1ccc2c(c1)Nc1ccccc1S2 [ML171, 2-acetylphenothiazine]
block of PIC-induced activation of caspase-3 [1]: up to 100%±3.4%
inhibition of NOX-1 (in words) [2]: nanomolar inhibitor
specificity for NOX-1 inhibition over NOX-2 inhibition and other NOX isoforms [2]: greater than 30 fold
block of PIC-induced activation of caspase-3 ([3]; 1 μM): up to 100%±7%
block of PIC-induced activation of caspase-3 ([3]; 10 μM): ≤ 100%±3%
inhibition of PIC-induced expression of NOX-1 gene [4]: 23%
inhibition of PIC-induced ROS (DCFDA conversion) [5]: dose dependent inhibition
block of PIC-induced activation of caspase-3 [6]: ≤ 97%±3.1%
inhibition of PIC-induced ROS (DCFDA conversion) ([7]; INS-1, PIC 1 hour): dose dependent inhibition
concentration of maximal protection from PIC-induced ROS ([7]; analogous results for INS-1 and βTC-3): 10 µM
cytokine induced cell death (YO-PRO-1 RFU) ([8]; 1 μM, p<0.05): protected islets from cytokine induced cell death
reduction of PIC induced islet apoptosis ([8]; 10 μM, 24 hours): 86%±4%
